Usually IC50 stands for the concentration at which inhibition is half-maximal. The term EC50 denotes the midpoint of the concentration-response curve.

Where only a bound is given, the exact number is not on record here.

This is an account of results in patent US10316017B2, “COT modulators and methods of use thereof” (Gilead Sciences, Inc., priority 2015, dated 2019).

For assay [1], the target named is T1, human Cot catalytic domain (30-397 amino acids) (Homo sapiens, UniProt P41279).
T1 construct: Purified recombinant human Cot catalytic domain (30-397 amino acids) was purchased from Cama Biosciences; purchased Cama Biosciences (so in the source)
T1 sequence (P41279 30-397): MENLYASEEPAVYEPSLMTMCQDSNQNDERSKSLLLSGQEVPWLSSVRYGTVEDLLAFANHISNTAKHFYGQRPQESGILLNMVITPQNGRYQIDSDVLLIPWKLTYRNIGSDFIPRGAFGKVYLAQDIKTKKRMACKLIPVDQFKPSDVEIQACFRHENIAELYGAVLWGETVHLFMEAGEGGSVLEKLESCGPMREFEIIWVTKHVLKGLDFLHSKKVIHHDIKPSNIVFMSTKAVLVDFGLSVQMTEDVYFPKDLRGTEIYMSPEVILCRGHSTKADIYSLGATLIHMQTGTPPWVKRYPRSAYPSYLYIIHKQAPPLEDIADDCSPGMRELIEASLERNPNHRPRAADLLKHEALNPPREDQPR
Nature of the assay: High Throughput Cot Biochemical Assay (KinEASE TR-FRET). The note with it: Cot KinEASE TR-FRET (HTRF) biochemical assay, 400 μM ATP; read-out: IC50 HTRF. In short, it runs like this:
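Reaction of 5 nM recombinant human Cot catalytic domain (aa 30-397) with 1 μM STK3 peptide (XL665-labeled) and 400 μM ATP in 10 mM MOPS pH 7.0, 10 mM MgOAc, 1 mM DTT, 0.5 mg/mL BSA, 0.1% DMSO. Phosphopeptide detected by TR-FRET with europium anti-phospho antibody.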
In general terms: Time-resolved FRET reads energy transfer from a long-lived donor to a nearby acceptor.

Assay [2] has as its system TNFα production in LPS-stimulated human monocytes. Nature of the assay: Cot Monocyte TNFα Cell Based Assay. The conditions noted are these: Homo sapiens, Monocyte, TNFα in LPS-stimulated human monocytes; read-out: EC50 TNF. The method, then:
Example 60: Cot Monocyte TNFα Cell Based Assay
The cell suspension was then plated at a density of 5,000 cells/well onto black 384 well Greiner clear bottom plates. Plates were pre-spotted with test compounds and serially diluted in DMSO where 200 nL/well were delivered using the Echo 550 acoustic liquid dispenser (Labcyte®) for a final DMSO concentration of 0.5%. Plated cells were treated with compound for 1 hour at 37° C. Cells were then stimulated with 50 pg/ml of LPS (Sigma) excluding outside columns of plate used for unstimulated cell control wells. Cells were incubated for an additional 4 hours at 37° C. Cells were then spun out of the media and 5 ul of sample were taken and analyzed for total TNFα content using the TR-FRET Human TNFα detection system (CisBio). This system utilizes two labeled antibodies (cryptate and XL665) that bind to two different epitopes of the TNFα molecule and produce FRET signal proportional to the concentration of TNFα in the sample. Detection antibodies are mixed 50:50 and 5 μL were dispensed into each well. Plates were covered with clear seals and incubated at room temp overnight. […] Percent of control was calculated as follows: % Control=100×(RatioSample−Ratio0% stimulation)/(Ratio100% Stimulation−Ratio0% Stimulation) where unstimulated cells (0% stimulation) were the negative control and stimulated cells (100% stimulation) were used as the positive control.

For the compound `[2H]C(Nc1cc(Cl)c2ncc(C#N)c(N[C@@H]3CCCC[C@@H]3N)c2c1)(c1ccc(F)cc1)c1cn(C2CC2)nn1` (stereo in doubt) [Example 228, 4-(((1R,2S)-2-aminocyclohexyl)amino)-8-chloro-6-(((S)-(1-cyclopropyl-1H-1,2,3-triazol-4-yl)(4-fluorophenyl)methyl-d)amino)quinoline-3-carbonitrile], the IC50 in assay [1] was determined as 807 nM. Further, the EC50 in assay [2] was above 10000 nM.
Taken in the same sequence, the figures for `[2H]C(Nc1cc(Cl)c2ncc(C#N)c(N[C@H]3CCCC[C@H]3NC(=O)OC(C)(C)C)c2c1)(c1ccc(F)cc1)c1cn(C2CC2)nn1` (stereo in doubt) [Example 231, tert-butyl ((1R,2S)-2-((8-chloro-3-cyano-6-(((S)-(1-cyclopropyl-1H-1,2,3-triazol-4-yl)(4-fluorophenyl)methyl-d)amino)quinolin-4-yl)amino)cyclohexyl)carbamate] were above 10000 nM and above 10000 nM.
On the same counts, the results for `[2H]C(Nc1cc(Cl)c2ncc(C#N)c(NC3C4CCCC43)c2c1)(c1ccc(F)cc1)c1cn(C2CC2)nn1` (stereo in doubt) [Example 242, 4-(bicyclo[3.1.0]hexan-6-ylamino)-8-chloro-6-(((S)-(1-cyclopropyl-1H-1,2,3-triazol-4-yl)(4-fluorophenyl)methyl-d)amino)quinoline-3-carbonitrile] are 8 nM and 270 nM.
Consider `[2H]C(Nc1cc(Cl)c2ncc(C#N)c(NC3CCCC4CC43)c2c1)(c1ccc(F)cc1)c1cn(C2CC2)nn1` (stereo in doubt) [Example 250, 4-(bicyclo[4.1.0]heptan-2-ylamino)-8-chloro-6-(((S)-(1-cyclopropyl-1H-1,2,3-triazol-4-yl)(4-fluorophenyl)methyl-d)amino)quinoline-3-carbonitrile], for which the IC50 in assay [1] was determined as 147 nM. Further, the EC50 in assay [2] stood at 993 nM.
Regarding `[2H]C(Nc1cc(Cl)c2ncc(C#N)c(NC3CCC4CC43)c2c1)(c1ccc(F)cc1)c1cn(C2CC2)nn1` (stereo in doubt) [Example 251, 4-(bicyclo[3.1.0]hexan-2-ylamino)-8-chloro-6-(((S)-(1-cyclopropyl-1H-1,2,3-triazol-4-yl)(4-fluorophenyl)methyl-d)amino)quinoline-3-carbonitrile], the IC50 in assay [1] worked out at 105 nM. Besides, in assay [2], the EC50 was determined as 1280 nM.
In the case of `[2H]C(Nc1cc(Cl)c2ncc(C#N)c(NC3CC4CCCC(C4)C3)c2c1)(c1ccc(F)cc1)c1cn(C2CC2)nn1` (stereo in doubt) [Example 278, 4-(((1R,5S)-bicyclo[3.3.1]nonan-3-yl)amino)-8-chloro-6-(((S)-(1-cyclopropyl-1H-1,2,3-triazol-4-yl)(4-fluorophenyl)methyl-d)amino)quinoline-3-carbonitrile], in assay [1], the IC50 was determined as 222 nM. In addition, in assay [2], the EC50 is above 10000 nM.
Regarding `[2H]C(Nc1cc(F)c2ncc(C#N)c(NC(CC#N)c3ccccc3)c2c1)(c1ccc(F)cc1)c1cn(C2CC2)nn1` (stereo in doubt) [Example 286, 4-((2-cyano-1-phenylethyl)amino)-6-(((1-cyclopropyl-1H-1,2,3-triazol-4-yl)(4-fluorophenyl)methyl-d)amino)-8-fluoroquinoline-3-carbonitrile], the IC50 in assay [1] was found to be 7 nM. Also, the EC50 in assay [2] came out at 127 nM.
Taken in the same sequence, the figures for `[2H]C(Nc1cc(Cl)c2ncc(C#N)c(N[C@H]3CCCCC3(C)C)c2c1)(c1ccc(F)cc1)c1cn(C2CC2)nn1` (stereo in doubt) [Example 319, 8-chloro-6-(((S)-(1-cyclopropyl-1H-1,2,3-triazol-4-yl)(4-fluorophenyl)methyl-d)amino)-4-(((S)-2,2-dimethylcyclohexyl)amino) quinoline-3-carbonitrile] were 372 nM and 4480 nM.
On the same counts, the results for `[2H]C(Nc1cc(Cl)c2ncc(C#N)c(NC3C(C)CCCC3C)c2c1)(c1ccc(F)cc1)c1cn(C2CC2)nn1` (stereo in doubt) [Example 320, 8-chloro-6-(((S)(1-cyclopropyl-1H-1,2,3-triazol-4-yl)(4-fluorophenyl)methyl-d)amino)-4-((2,6-dimethylcyclohexyl)amino) quinoline-3-carbonitrile] are 1150 nM and 6430 nM.
As for `[2H][C@](Nc1cc(Cl)c2ncc(C#N)c(NCC(C)(C)C)c2c1)(c1ccc(F)cc1)c1cn(C2CC2)nn1` [Compound 1], the IC50 in assay [1] was determined as 6 nM. Besides, the EC50 in assay [2] amounted to 143 nM.
On the same counts, the results for `[2H][C@](Nc1cc(Cl)c2ncc(C#N)c(N[C@H](CC)c3ccccc3)c2c1)(c1ccc(F)cc1)c1cn(C2CC2)nn1` [Compound 2] are 6 nM and 151 nM.
`Cc1ccccc1[C@H](Nc1cc(Cl)c2ncc(C#N)c(NCC(C)(C)C)c2c1)c1cn(C2CC2)nn1` [Compound 3]: the IC50 in assay [1] was 7 nM. Moreover, the EC50 in assay [2] stood at 246 nM.
In the case of `[2H]C(Nc1cc(Cl)c2ncc(C#N)c(NCC(C)(C)C)c2c1)(c1cn(CC(N)=O)nn1)c1ccccc1Cl` (stereo not shown) [Compound 4], in assay [1], the IC50 was determined as 6 nM. For the same compound, in assay [2], the EC50 stood at 280 nM.
Taken in the same sequence, the figures for `CCN1CCC(n2cc([C@@H](Nc3cc(Cl)c4ncc(C#N)c(Nc5ccc(F)c(Cl)c5)c4c3)c3ccc(F)cc3)nn2)CC1` [Compound 5] were 2 nM and 153 nM.
As to `N#Cc1cnc2c(Cl)cc(NC(c3ccc(F)cc3)c3ccon3)cc2c1Nc1ccc(F)c(Cl)c1` (stereo not shown) [Compound 7], the IC50 in assay [1] stood at 187 nM. Moreover, the concentration for a half-maximal effect (EC50) in assay [2] was determined as 1520 nM.
With `Cn1cc(C(Nc2cc(Br)c3ncc(C#N)c(Nc4ccc(F)c(Cl)c4)c3c2)c2ccc(F)cc2)nn1` (stereo not shown) [Compound 8, 8-bromo-4-((3-chloro-4-fluorophenyl)amino)-6-(((4-fluorophenyl) (1-methyl-1H-1,2,3-triazol-4-yl)methyl)amino) quinoline-3-carbonitrile], the IC50 in assay [1] stood at 33 nM. Also, in assay [2], the EC50 was determined as 571 nM.
On the same counts, the results for `CC(=O)N(C)c1cccc([C@H](Nc2cc(C#N)c3ncc(C#N)c(NCC(C)(C)C)c3c2)c2cn(C3CC3)nn2)c1` [Compound 9] are 2 nM and 172 nM.
As to `CC(C)(C)N1CCC(n2cc([C@@H](Nc3cc(Cl)c4ncc(C#N)c(Nc5cnc(F)c(Cl)c5)c4c3)c3ccccc3)nn2)CC1` [Compound 10], the concentration for half-maximal inhibition (IC50) in assay [1] stood at 4 nM. Also, the EC50 in assay [2] was 71 nM.
As for `[2H][C@](Nc1cc(C(C)=O)c2ncc(C#N)c(NCC(C)(C)C)c2c1)(c1ccc(F)cc1)c1cn(C2CC2)nn1` [Compound 11], in assay [1], the IC50 is 5 nM. Besides, the EC50 in assay [2] came to 98 nM.
With `[2H][C@](Nc1cc(-c2cncnc2)c2ncc(C#N)c(NCC(C)(C)C)c2c1)(c1ccc(F)cc1)c1cn(C2CC2)nn1` [Compound 12], in assay [1], the IC50 was found to be 20 nM. Besides, the EC50 in assay [2] came to 205 nM.
`[2H][C@](Nc1cc(Br)c2ncc(C#N)c(NCC(C)(C)C)c2c1)(c1ccc(F)cc1)c1nnn(C2CC2)c1SC` [Compound 13, (S)-8-bromo-6-(((1-cyclopropyl-5-(methylthio)-1H-1,2,3-triazol-4-yl)(4-fluorophenyl)methyl-d)amino)-4-(neopentylamino) quinoline-3-carbonitrile]: the IC50 in assay [1] was found to be 71 nM. Further, the EC50 in assay [2] stood at 221 nM.
Taken in the same sequence, the figures for `[2H][C@@](Nc1cc(C(C)=O)c2ncc(C#N)c(NCC(C)(C)C)c2c1)(c1cn(C2CC2)nn1)c1ccccc1Cl` [Compound 14] were 13 nM and 298 nM.
Taken in the same sequence, the figures for `[2H][C@](Nc1cc(Cl)c2ncc(C#N)c(N[C@H](CC)c3ccccc3)c2c1)(c1cccc(C#N)c1)c1c[nH]nn1` [Compound 15] were 4 nM and 134 nM.
For the compound `CC(C)(C)N1CCC(n2cc([C@@H](Nc3cc(Cl)c4ncc(C#N)c(NC(=O)c5ccccc5)c4c3)c3ccc(F)cc3)nn2)CC1` [Compound 16, (S)-N-(6-(((1-(1-(tert-butyl)piperidin-4-yl)-1H-1,2,3-triazol-4-yl)(4-fluorophenyl)methyl)amino)-8-chloro-3-cyanoquinolin-4-yl)benzamide], the IC50 in assay [1] amounted to 1400 nM. The EC50 in assay [2] is above 10000 nM.
Turning to `CC(C)(C)N1CCC(n2cc([C@@H](Nc3cc(Cl)c4ncc(C#N)c(Nc5ccc(F)c(Cl)c5)c4c3)c3cccc(CO)c3)nn2)CC1` [Compound 17, (S)-6-(((1-(1-(tert-butyl)piperidin-4-yl)-1H-1,2,3-triazol-4-yl)(3-(hydroxymethyl)phenyl)methyl)amino)-8-chloro-4-((3-chloro-4-fluorophenyl)amino) quinoline-3-carbonitrile], the IC50 in assay [1] is 4 nM. Besides, the EC50 in assay [2] came out at 260 nM.
Turning to `CN(C)Cc1cccc([C@H](Nc2cc(Cl)c3ncc(C#N)c(Nc4ccc(F)c(Cl)c4)c3c2)c2cn(C3CCN(C(C)(C)C)CC3)nn2)c1` [Compound 18], the IC50 in assay [1] was 7 nM. Moreover, in assay [2], the EC50 is 1220 nM.
